The test system of this assay is P388 leukemia ip, CD2F1 mice, survival T/C. Description: NCI In Vivo Anticancer Drug Screen. Data for tumor model P388 Leukemia (intraperitoneal) in CD2F1 (CDF1) mice. To be noted: endpoint: median survival time, higher = longer survival. Put shortly:
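Mice carrying the transplanted tumor received test compound or vehicle. Survival was recorded in each group, and the value is the treated-group measurement divided by that of the vehicle-treated control group.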

Where [1] appears, read: dose: 60.0 mg/kg/injection, schedule: Q01DX005 (ip), vehicle: saline.
The mark [2] stands for this setting: dose: 120.0 mg/kg/injection, schedule: Q01DX005 (ip), vehicle: saline.
Where [3] appears, read: dose: 240.0 mg/kg/injection, schedule: Q01DX005 (ip), vehicle: saline.
[4] abbreviates: dose: 25.0 mg/kg/injection, schedule: Q01DX009 (ip), vehicle: Klucel (hydroxypropylcellulose) (HPC).
Setting [5] is: dose: 50.0 mg/kg/injection, schedule: Q01DX005 (ip), vehicle: saline with Tween-80.
The mark [6] stands for this setting: dose: 50.0 mg/kg/injection, schedule: Q01DX009 (ip), vehicle: saline with Tween-80.
Setting [7] is: dose: 100.0 mg/kg/injection, schedule: Q01DX009 (ip), vehicle: saline with Tween-80.
[8] abbreviates: dose: 200.0 mg/kg/injection, schedule: Q01DX009 (ip), vehicle: saline with Tween-80.
Where [9] appears, read: dose: 100.0 mg/kg/injection, schedule: Q01DX005 (ip), vehicle: saline with Tween-80.
Setting [10] is: dose: 200.0 mg/kg/injection, schedule: Q01DX005 (ip), vehicle: saline with Tween-80.
Where [11] appears, read: dose: 100.0 mg/kg/injection, schedule: Q04DX003 (ip), vehicle: saline with Tween-80.
[12] abbreviates: dose: 200.0 mg/kg/injection, schedule: Q04DX003 (ip), vehicle: saline with Tween-80.
[13] abbreviates: dose: 400.0 mg/kg/injection, schedule: Q04DX003 (ip), vehicle: saline with Tween-80.
Setting [14] is: dose: 60.0 mg/kg/injection, schedule: Q01DX005 (ip), vehicle: saline with Tween-80.
Setting [15] is: dose: 120.0 mg/kg/injection, schedule: Q01DX005 (ip), vehicle: saline with Tween-80.
Setting [16] is: dose: 240.0 mg/kg/injection, schedule: Q01DX005 (ip), vehicle: saline with Tween-80.
The mark [17] stands for this setting: dose: 50.0 mg/kg/injection, schedule: Q01DX009 (ip), vehicle: Klucel (hydroxypropylcellulose) (HPC).

T/C data for 28 compounds are collected here from PubChem BioAssay AID330 (DTP/NCI, 2004).

Each structure is given as a SMILES string. Values joined by “and” are separate entries in the source; they are usually repeats but may differ in a detail not shown here. Equal values may be shown once. Toxic doses and inconclusive results are not listed.

Regarding `COC(=O)C1(C(C)C(=O)c2ccc(Cl)cc2)NC(=S)NC(=O)C1C#N` (stereo not drawn), the T/C was 104 % of control under setting [1], 106 % of control under setting [2] and 108 % of control under setting [3].

With `C[N+](C)(C)CCC(=O)c1ccccc1`, the T/C reads like this: (dose: 12.5 mg/kg/injection, schedule: Q01DX009 (ip), vehicle: Klucel (hydroxypropylcellulose) (HPC)) 99 % of control; under setting [4], 96 % of control.

Take `NN1C(=O)/C(=C\c2ccccc2)SC1=S`: the T/C is 107 % of control (dose: 100.0 mg/kg/injection, schedule: Q04DX002 (ip), vehicle: Klucel (hydroxypropylcellulose) (HPC)); 111 % of control (dose: 200.0 mg/kg/injection, schedule: Q04DX002 (ip), vehicle: Klucel (hydroxypropylcellulose) (HPC)); 98 % of control (dose: 400.0 mg/kg/injection, schedule: Q04DX002 (ip), vehicle: Klucel (hydroxypropylcellulose) (HPC)).

For `[Co].c1c[nH]cn1.c1c[nH]cn1.c1c[nH]cn1.c1c[nH]cn1.c1c[nH]cn1.c1c[nH]cn1`, the T/C was 103 % of control (dose: 12.5 mg/kg/injection, schedule: Q01DX005 (ip), vehicle: saline with Tween-80); 94 % of control (dose: 25.0 mg/kg/injection, schedule: Q01DX005 (ip), vehicle: saline with Tween-80); 103 % of control and 107 % of control under setting [5].

On to `c1ccc2c(c1)CN1Cc3ccccc3C2C1`, for which the T/C runs as follows: under setting [6], 99 % of control; under setting [7], 93 % of control; under setting [8], 91 % of control.

For `O=C(CSc1nccc(=O)[nH]1)c1ccccc1`, the T/C by setting is: under setting [5], 103 % of control; under setting [9], 103 % of control; under setting [10], 100 % of control.

On to `N#CCCn1nc(SCc2ccccc2)c(=O)[nH]c1=O`, for which the T/C under setting [5] is 95 % of control, the T/C under setting [9] is 94 % of control and the T/C under setting [10] is 92 % of control.

On to `O=C(COc1ccc(Cl)cc1Cl)Nc1ccccc1F`, for which the T/C under setting [11] is 100 % of control, the T/C under setting [12] was 100 % of control and the T/C under setting [13] is 100 % of control.

Consider `O=c1[nH]cc(CSc2ncc[nH]2)c(=O)[nH]1`, for which the T/C runs as follows: (dose: 30.0 mg/kg/injection, schedule: Q01DX005 (ip), vehicle: saline) 119 % of control; under setting [14], 119 % of control; under setting [1], 124 % of control.

For the compound `CCCCCCCC/C=C\CCCCCCCC(=O)OCC(COC(=O)CCCCCCC/C=C\CCCCCCCC)OC(=O)N(CCCl)CCCl`, the T/C was 118 % of control (dose: 30.0 mg/kg/injection, schedule: Q01DX005 (ip), vehicle: saline with Tween-80); 115 % of control under setting [14]; 174 % of control under setting [15]; 205 % of control and 259 % of control under setting [16].

Regarding `O=C(Cn1ccc(=O)[nH]c1=O)N1CCOCC1`, the T/C by setting is: (dose: 100.0 mg/kg/injection, schedule: Q04DX003 (ip), vehicle: water) 100 % of control; (dose: 200.0 mg/kg/injection, schedule: Q04DX003 (ip), vehicle: water) 100 % of control; (dose: 400.0 mg/kg/injection, schedule: Q04DX003 (ip), vehicle: water) 100 % of control.

Take `CC(NC(=O)C(NC(=O)OCc1ccccc1)C(C)O)C(=O)OCc1ccccc1` (stereo not drawn): the T/C reads like this: under setting [5], 101 % of control; under setting [9], 92 % of control; under setting [10], 100 % of control.

On to `CN=C1NC(=O)C(c2ccccc2)S1` (stereo not drawn), for which the T/C is 99 % of control under setting [5] and 99 % of control under setting [9].

`O=C(OC1(c2nccc3ccccc23)CCCCC1)c1ccccc1`: the T/C was 97 % of control under setting [4]; 93 % of control under setting [17]; 103 % of control (dose: 100.0 mg/kg/injection, schedule: Q01DX001 (ip), vehicle: Klucel (hydroxypropylcellulose) (HPC)); 94 % of control (dose: 200.0 mg/kg/injection, schedule: Q01DX001 (ip), vehicle: Klucel (hydroxypropylcellulose) (HPC)); 92 % of control (dose: 400.0 mg/kg/injection, schedule: Q01DX001 (ip), vehicle: Klucel (hydroxypropylcellulose) (HPC)).

`CC(C)CN1CC(=O)N2CCCC(c3ccccc3)N2C(=O)C1` (stereo not drawn): the T/C was 95 % of control under setting [5], 115 % of control under setting [9] and 112 % of control under setting [10].

For `CC(=O)Nc1ccc(C(=O)/C=N\NC(N)=S)cc1`, the T/C runs as follows: under setting [6], 94 % of control; under setting [7], 86 % of control; under setting [8], 94 % of control.

Take `ClCCCCOCBr`: the T/C is 93 % of control under setting [1] and 87 % of control under setting [3].

Regarding `COC(=O)c1c[nH]c(=S)n1C`, the T/C reads like this: (dose: 100.0 mg/kg/injection, schedule: Q04DX002 (ip), vehicle: saline) 98 % of control; (dose: 200.0 mg/kg/injection, schedule: Q04DX002 (ip), vehicle: saline) 100 % of control; (dose: 400.0 mg/kg/injection, schedule: Q04DX002 (ip), vehicle: saline) 105 % of control.

As to `Cc1cc2c(=O)cc(-c3ccc(Cl)cc3)oc2c(C#N)c1C`, the T/C (dose: 60.0 mg/kg/injection, schedule: Q01DX005 (ip), vehicle: Klucel (hydroxypropylcellulose) (HPC)) is 89 % of control; the T/C (dose: 120.0 mg/kg/injection, schedule: Q01DX005 (ip), vehicle: Klucel (hydroxypropylcellulose) (HPC)) is 93 % of control; the T/C (dose: 240.0 mg/kg/injection, schedule: Q01DX005 (ip), vehicle: Klucel (hydroxypropylcellulose) (HPC)) is 100 % of control.

In the case of `c1ccc(C2SC(c3ccccc3)SC(c3ccccc3)S2)cc1` (stereo not drawn), the T/C runs as follows: under setting [17], 109 % of control; (dose: 100.0 mg/kg/injection, schedule: Q01DX009 (ip), vehicle: Klucel (hydroxypropylcellulose) (HPC)) 107 % of control; (dose: 200.0 mg/kg/injection, schedule: Q01DX009 (ip), vehicle: Klucel (hydroxypropylcellulose) (HPC)) 108 % of control; (dose: 400.0 mg/kg/injection, schedule: Q01DX009 (ip), vehicle: Klucel (hydroxypropylcellulose) (HPC)) 106 % of control.

With `CCOC(=O)C[N+](C)(C)C(C#N)C(C)c1ccccc1` (stereo not drawn), the T/C was 95 % of control under setting [1] and 95 % of control under setting [2].

Consider `O=C(OC1CC2CCCCC2CC1(O)c1ccccc1)c1cccc(Cl)c1` (stereo not drawn), for which the T/C is 99 % of control (dose: 100.0 mg/kg/injection, schedule: Q01DX001 (ip), vehicle: acetone); 103 % of control (dose: 200.0 mg/kg/injection, schedule: Q01DX001 (ip), vehicle: acetone); 104 % of control (dose: 400.0 mg/kg/injection, schedule: Q01DX001 (ip), vehicle: acetone).

Regarding `O=C1CN(CCCO)CC(=O)N2Cc3ccccc3CN12`, the T/C is 94 % of control (dose: 50.0 mg/kg/injection, schedule: Q01DX005 (ip), vehicle: saline); 100 % of control (dose: 100.0 mg/kg/injection, schedule: Q01DX005 (ip), vehicle: saline); 99 % of control (dose: 200.0 mg/kg/injection, schedule: Q01DX005 (ip), vehicle: saline).

Consider `NC(CCC(=O)NC(CS)C(=O)NCC(=O)O)C(=O)O.[CH2-]CCC.[CH2-]CCC.[CH2-]CCC.[CH2-]CCC.[Ti+4]` (stereo not drawn), for which the T/C is 103 % of control under setting [5] and 89 % of control under setting [9].

On to `Cc1ccc(C(=O)CCl)c(C)c1`, for which the T/C by setting is: (dose: 12.5 mg/kg/injection, schedule: Q04DX003 (ip), vehicle: saline with Tween-80) 110 % of control; (dose: 25.0 mg/kg/injection, schedule: Q04DX003 (ip), vehicle: saline with Tween-80) 105 % of control; (dose: 50.0 mg/kg/injection, schedule: Q04DX003 (ip), vehicle: saline with Tween-80) 110 % of control.

On to `COC1=CC(=O)OC1n1ccc(OC)nc1=O` (stereo not drawn), for which the T/C runs as follows: (dose: 50.0 mg/kg/injection, schedule: Q01DX005 (ip), vehicle: Klucel (hydroxypropylcellulose) (HPC)) 100 % of control; (dose: 100.0 mg/kg/injection, schedule: Q01DX005 (ip), vehicle: Klucel (hydroxypropylcellulose) (HPC)) 95 % of control; (dose: 200.0 mg/kg/injection, schedule: Q01DX005 (ip), vehicle: Klucel (hydroxypropylcellulose) (HPC)) 95 % of control.

As to `CSC(=S)c1c(C)cccc1C`, the T/C is 110 % of control under setting [11], 100 % of control under setting [12] and 113 % of control under setting [13].

As for `[N-]=[N+]=Nc1ccnc2c(C(F)(F)F)cccc12`, the T/C is 108 % of control under setting [14], 100 % of control under setting [15] and 92 % of control under setting [16].
